Reference: patent US11993640B2, “Treating inflammatory lung disease” (United States Government as represented by the Department …, priority 2019, dated 2024)
“Also recorded” adds a separate entry of the source. Non-standard residues stand in square brackets, D forms with d. Residues, ends and D or L forms follow the SMILES beside them. *: point of attachment. Phe(F5) = N[C@@H](Cc1c(F)c(F)c(F)c(F)c1F)C(=O)O; hArg = N=C(N)NCCCC[C@H](N)C(=O)O; 12Ado = NCCCCCCCCCCCC(=O)O; Nle = CCCC[C@H](N)C(=O)O; Orn = NCCC[C@H](N)C(=O)O; Abu = CC[C@H](N)C(=O)O; PhAc = O=C(Cc1ccccc1)*

What was measured:
[1] = test system: C57Bl/6J mice treated with bleomycin; assay: RNAseq and pathway analysis of lung tissue of bleomycin-treated mice; format: in vivo, mouse; details: bleomycin 28 days, MIA-602 versus vehicle
Description: (§1) Bleomycin and GHRH-R antagonist treatment. Mice were treated with 0.8 units of bleomycin (Bleomycin for Injection USP, Hospira, Lake Forest, IL) intraperitoneally (IP) on days 1, 3, 7, 10, 14 and 21 (Collins S, Chan-Li Y, Oh M, Vigeland C, Limjunyawong N, Mitzner W, Powell J D, Horton M R (2016). JCI Insight 1(4):1-13). Mice (randomly assigned) were simultaneously treated subcutaneously (sc) with MIA-602 (5 μg/day) or its vehicle (100 μL/day). MIA-602 was dissolved in DMSO (ACS grade; Sigma-Aldrich) and diluted 1:500 in normal saline for daily sc injection on days 0-21.
RNA isolation. RNA was extracted from fixed lung tissue in paraffin blocks using a Quick-RNA™ FFPE Kit (R1008, Zymo Research, Irvine, CA) following the manufacturer's protocol (Patel P, Selvarajah S, Guerard K, Bartlett J, Lapointe J, Berman D, Okello J, Park P (2017). PLoS ONE 12:e0179732). […]
RNAseq and Pathway analyses. […] Cluster generation and sequencing was done on the Illumina cBOT and HiSeq 3000 using reagents provided by Illumina, finally generating >32 million single-end 100 base reads per sample. […]
Gene counts were normalized using trimmed mean of M-values (TMM) method. Differential expression between groups was calculated with the exact test implemented in edgeR (Robinson M, McCarthy D, Smyth G (2010). Bioinformatics 26:139-140). […]

[2] = test system: C57Bl/6J mice treated with bleomycin; assay: Bleomycin lung injury model, micro-CT of lungs; format: in vivo, mouse; details: bleomycin plus MIA-602
Description: Experimental animals. 8-week old C57Bl/6J male mice (The Jackson Laboratory, Bar Harbor, ME) were used in these experiments. Mice weighed about 26 grams at the start. Mice were randomly allocated to the experimental groups and housed in identical filter top cages in a ventilated rack. Mice were exposed to a 12-hour light/dark cycle and had free access to standard laboratory chow and water.
as §1
Tissue preparations. Mice were killed by CO2 inhalation before any treatment, or on days 14 or 28 for micro-CT scans of lungs and harvesting of lung tissue (Vande Velde G, Poelmans J, De Langhe E, Hillen A, Vanoirbeek J, Himmelreich U, Lories R (2016). Dis Model Mech 9:91). […]
Micro-CT. Mice in each group were assessed by micro-CT scans (Bruker SkyScan 1176 Low Dose Micro-CT, Knotich, Belgium) of the lungs after CO2 inhalation. […]

[3] = test system: PAK1-STAT3/NF-κB in gastric cancer cells; details: Gan et al. 2016; cited from earlier work
SK-OV-3 xenograft = assay: Xenograft tumor growth in nude mice, ovarian cancer SK-OV-3; format: in vivo; details: Panel L, 7 weeks, 5 μg/day s.c.
Description: The peptides' activity was compared with GHRH antagonist MIA-602. All statistical analyzses were performed from comparing GHRA antagonists to non-treated tumor (control).
Peptides and chemicals. GHRH antagonists MIA-602 and AVR-GHRH antagonists (see Table 2 above) were synthesized by solid phase methods and purified by HPLC. The peptides were dissolved in DMSO and further diluted in 10% 1, 2-propanediol. The final concentration of peptides was 50 µg/ml in 10% 1, 2-propanediol containing 0.1% of DMSO.
Cell culture. Human cancer cell lines including pancreatic (PANC-1 and CFPAC-1), lung (HCC827 and H460), stomach (NCI-N87), prostate (PC3), brest (MX-1 and HCC-1806), colorectal (HT-29), and ovarian (SK-OV-3 and OVCAR-3) were obtained from the American Type Culture Collection (ATCC) and cultured at 37° C. in a humidified 95% air/5% CO2 atmosphere in the medium recommended by ATCC.
Xenograft models of human cancers in nude mice. Female athymic (NCr nu/nu) nude mice, 5-to 6-weeks-old, obtained from the Envigo labs (Tampa, FL), were housed in laminar airflow cabinets under pathogen-free conditions with a 12-h light/12-h dark schedule, and were fed autoclaved standard chow and water. To generate mice with xenografted tumors, tumor xenografts were initiated by subcutaneous (s.c.) injection of […] human cancer cells into female nude mice. After about 4 weeks the resulting tumors were dissected and collected after removing necrosis tissues. The tumors were then cut into particles with size of ˜3 mm3 and transplanted s.c. by trocar needle into experimental animals. When tumors grew to the size of 50-60 mm3 (by volume), mice were randomized into groups and treated daily for 4-8 weeks by subcutaneous administration of 5 μg of GHRH antagonists MIA-602 or AVR-compounds (2-10 μg as indicated), or vehicle solutions (0.1% DMSO in 10% 1, 2-propanediol) respectively. Tumor sizes were measured weekly.
Statistical analysis. One-way ANOVA followed by Bonferroni comparison were performed. Data are expressed as Mean±SEM. To determine statistical significance between animal groups, two-tailed Student's t-test was conducted. Differences were considered significant when p<0.05.
Results. […] FIG. 1A-N represents in vivo inhibition of tumor growth during the treatment with GHRH antagonist MIA-602 and selected AVR antagonists in nude mice xenografted with various human tumors including pancreatic cancer PANC-1 (FIG. 1A) and CFPAC-1 (FIG. 1I); lung cancer HCC827 (FIGS. 1B, C) and H460 (FIG. 1H); stomach cancer N87 (FIGS. 1D-F); colon cancer HT-29 (FIG. 1G); breast cancer MX-1 and HCC-1806 (FIGS. 1J, K); ovarian cancer SK-OV-3 and OVACAR-3 (FIGS. 1L, M) and prostate cancer PC3 (FIG. 1N). See also Table 5.

Structure (SMILES): CCCC[C@H](NC(=O)[C@@H](NC(=O)[C@H](CC(=O)O)NC(=O)[C@H](CCC(N)=O)NC(=O)[C@H](CC(C)C)NC(=O)[C@H](CC(C)C)NC(=O)[C@H](CCCN)NC(=O)[C@H](Cc1c[nH]cn1)NC(=O)[C@H](C)NC(=O)[C@H](CO)NC(=O)[C@H](CC(C)C)NC(=O)[C@H](CCC(N)=O)NC(=O)[C@H](CC)NC(=O)[C@H](CC(C)C)NC(=O)[C@@H](NC(=O)[C@H](CCCN)NC(=O)[C@H](Cc1c[nH]cn1)NC(=O)[C@H](Cc1ccc(OC)cc1)NC(=O)[C@H](CCCCNC(=N)N)NC(=O)[C@H](C)NC(=O)[C@@H](NC(=O)[C@H](Cc1c(F)c(F)c(F)c(F)c1F)NC(=O)[C@@H](NC(=O)[C@H](C)NC(=O)[C@H](CC(=O)O)NC(=O)[C@@H](CCCNC(=N)N)NC(=O)[C@H](Cc1ccc(O)cc1)NC(=O)CCCCCCCCCCCNC(=O)Cc1ccccc1)[C@@H](C)CC)[C@@H](C)O)C(C)C)[C@@H](C)CC)C(=O)N[C@H](CCCNC(=N)N)C(=O)N[C@@H](CCCCNC(=N)N)C(N)=O [MIA-602, PhAC-Ada, Tyr D-Arg, Asp, Ala, Ile, 5FPhe, Thr, Ala, Har, Tyr(Me), His, Orn, Val, Leu, Abu, Gin, Leu, Ser, Ala, His, Orn, Leu, Leu, Gin, Asp, Ile, Nle, D-Arg, Har NH2, reference compound] ({PhAc-12Ado}-Y[dR]DAI[Phe(F5)]TA[hArg]Y(Me)H[Orn]VL[Abu]QLSAH[Orn]LLQDI[Nle][dR][hArg]-NH2)
- Lung gene expression, RNA-seq pathway analysis [1]: suppression of the adaptive immune response, T cell differentiation and activation and cytokine production
- Infiltrative densities in lungs on micro-CT [2]: less prominent infiltrative densities
- Signaling pathways in gastric cancer cells [3]: downregulates p21 activated kinase and STAT3 and NFκB; also recorded: inhibits signaling pathways, including PAK1-STAT3/NF-κB
- Tumor Growth % (SK-OV-3 xenograft): 810.1%
- % Inhibition (SK-OV-3 xenograft; vs control): 38.0%
